Test results published in patent US8461118B2, “Lytic peptides having anti-proliferative activity against prostate cancer cells” (Tuskegee University, priority 2011, dated 2013).
pIC50: −log10 of the molar value. Several values for one entry are separate records, joined by “and”; a condition that tells them apart may be missing. Equal entries are not always repeated. Entries after “also recorded” stand apart in the source; their conditions may differ. Ends that are not written are not given here.

How the values were obtained:
[1] = test system: PC-3 cells; assay type: cell-based, human; conditions: for pIC50: MTT, 72 h exposure
Text: To evaluate the efficacy of these peptides in inhibiting prostate cancer, a prostate cancer progression model was followed that utilized several different cell lines in various experiments as described herein to form this model, including the known cell lines DU-145, PC-3, LNCaP, and hPrEC. […] This cell line has both LHRH-R and epidermal growth factor receptors (“EGFR”), and produces the EGFR ligands, transforming growth factor α (TGF-α) and EGF. The androgen-unresponsive PC-3 cell line is derived from a human bone metastasis of a grade IV prostatic adenocarcinoma, while the androgen-responsive LNCaP cell line is derived from a human lymph node metastasis. For all experiments described herein, normal primary human prostate epithelial cells (“hPrEC”) were obtained from Clonetics (Lonza Inc., Walkersville, Md.), while the other cell lines were purchased from ATCC and maintained in T-media (Gibco Invitrogen, CA) supplemented with 10% fetal bovine serum (FBS) (Gibco Invitrogen, CA) and 1% penicillin/streptomycin (Cellgro Mediatech, Inc., VA).
In the various experiments described below, unless otherwise noted, the cytotoxicity of the various peptides when measured was evaluated using the methylthiazol tetrazolium (“MTT”) assay (Sigma Aldrich, MO), which determines the number of viable cells from the formazan crystals produced by metabolic activity. The cells in such cytotoxicity experiments were plated in 96-well plates at 2.5×10^3 cells/well, and were allowed to reattach overnight. They were then exposed to the test lytic peptides (1-20 μM) for 72 h. The MTT reagent [3-(4,5-dimethylthiazol-2-yl)-2,5-diphenyltetrazolium bromide], 50 μL) in T-media was added to each well, and the plates were incubated for 2 h. The supernatant media was aspirated, and formazan crystals were dissolved with […] dimethylsulfoxide per well at 37° C. for 10 min. The quantity of solublized formazan per well was determined by a Spectromax plate reader at 540 nm (Molecular Devices, CA). Each assay was performed at least three times with six replicates per data point.
For all experiments, unless otherwise noted, statistics were performed with Microsoft Excel. Independent Student's t-test was utilized to determine statistical differences between experimental subjects and control subjects. The IC50 values were derived through regression analysis of the continuous data by cubic spline interpolation utilizing Aabel™ (Gigawiz Ltd. Co., OK), a software application that integrates statistics (inferential and multivariate) with graphical representation.
To determine the effectiveness of JCH and JC21 with or without mLHRH conjugates, androgen-independent, highly metastatic PC-3 cells were exposed to the peptides in increasing concentrations (0-20 μM).
For this experiment, IC50 values were determined by interpolation of three individual experiments performed in quadruplicate at 50% cell death. All values were reported in the table of FIG. 2A were determined to be significant compared to control p<0.001. In the table, “n.d.” serves as an abbreviation for “not determined,” as tests were not conducted for JHC and JC21 against LNCaP and DU-145.

[2] = test system: normal primary hPrEC cells; experiment: MTT cytotoxicity on normal primary prostate epithelial cells; assay type: cell-based, human; conditions: 0-20 μM
Text: (§1) To evaluate the efficacy of these peptides in inhibiting prostate cancer, a prostate cancer progression model was followed that utilized several different cell lines in various experiments as described herein to form this model, including the known cell lines DU-145, PC-3, LNCaP, and hPrEC. […] This cell line has both LHRH-R and epidermal growth factor receptors (“EGFR”), and produces the EGFR ligands, transforming growth factor α (TGF-α) and EGF. The androgen-unresponsive PC-3 cell line is derived from a human bone metastasis of a grade IV prostatic adenocarcinoma, while the androgen-responsive LNCaP cell line is derived from a human lymph node metastasis. […]
(§2) In the various experiments described below, unless otherwise noted, the cytotoxicity of the various peptides when measured was evaluated using the methylthiazol tetrazolium (“MTT”) assay (Sigma Aldrich, MO), which determines the number of viable cells from the formazan crystals produced by metabolic activity. […] The quantity of solublized formazan per well was determined by a Spectromax plate reader at 540 nm (Molecular Devices, CA). […]

[3] = test system: PC-3 cells treated with siRNA-LHRH-R; experiment: Peptide sensitivity of PC-3 cells after siRNA-LHRH-R knockdown (trypan blue exclusion); assay type: cell-based, human; conditions: 100 nM siRNA-LHRH-R
Description: To more firmly establish the significance of the mLHRH sequence on peptide activity, PC-3 cells were treated with siRNA-LHRH at 50 nM and 100 nM concentrations and assayed LHRH levels by immunofluorescence. In this Experiment, PC-3 cells were treated with siRNA-LHRH-R at 50 nM and 100 nM, and compared to control. For this experiment, a total of about 2×10^5 cells, equaling approximately 60-70% confluency, were plated in six-well plates. The LHRH-R siRNA (Santa Cruz, Calif.) was diluted in […] of Opti-MEM (Invitrogen, CA). A […] aliquot of Lipofectamine 2000 (Invitrogen, CA) was diluted in […] of Opti-MEM and incubated for 5 min at room temperature. The diluted siRNA and Lipofectamine 2000 were mixed according to manufacturer's directions and incubated for 20 min at room temperature. The resulting complexes were added to each well and incubated for 24 h. […]
LHRH-R expression was determined by immuno-fluorescence staining with 4′,6-diamidino-2-phenylindole (“DAPI”) utilizing anti-LHRH-R antibody (Lab Vision, CA) and Alexa 488 secondary antibody (Invitrogen, CA).
For purposes of comparison, PC-3 cells were treated with JC21 mLHRH or JCHmLHRH in the presence or absence of 100 nM siRNA-LHRH-R or siRNA-scramble treated cells. Cell viability was determined by trypan blue exclusion, and the results are depicted in the graph of FIG. 3C.

[4] = test system: PC-3 cells; experiment: Real-time imaging, trypan blue exclusion and Annexin V in PC-3 cells; assay type: cell-based, human
Description: In the various experiments described below, unless otherwise noted, real-time imaging of cell cultures was performed utilizing an Olympus DSU (Disk Scanning Units) Confocal microscope (Olympus America Inc., PA). The subject cells were maintained in 5% CO2 at 37° C. in an incubation chamber (Pathology Devices, Inc., MD). Images were taken every 15 min and processed utilizing MetaMorph Imaging Software (Molecular Devices, CA).
Although the mechanism associated with the anti-tumor activity of lytic peptides has not been defined, without wishing to be limited to any mechanism of action, it is believed that direct interaction of the present lytic peptides with the cell membrane causes the electrochemical potential to collapse, resulting in cell death. To investigate the potential mechanism of action, a qualitative approach utilizing real-time imaging was employed in conjunction with monitoring of a classic marker of apoptosis, Annexin V. Since the mechanism of death was unknown, real-time imaging was employed for cells in a 5% CO2 and temperature-regulated (37° C.) chamber to monitor the effects of JC21mLHRH and JCHmLHRH on PC-3 cellular responses.
PC-3 cell cultures were exposed to JCHmLHRH (5 μM) or JC21mLHRH (8 μM) and imaged continuously for 24 h with time-lapse microscopy. FIG. 5A comprises eight black and white photographs depicting real-time images of PC-3 cells after treatment with lytic peptides JCHmLHRH (5 μM) or JC21mLHRH (8 μM) taken with time-lapse microscopy under 5% CO2 and 37° C. at 0, 3, 6, and 12 hours post administration. […] There were different modes of action by which JCHmLHRH and JC21mLHRH caused cell death.
FIG. 5B is a graph reporting experimental results for cell percentage corresponding to the images of FIG. 5A. Quantification of total cell number and cell viability was determined by trypan blue exclusion after exposure to JCHmLHRH (5 μM) or JC21mLHRH (8 μM) over a 24 h period. The results shown in the graph of FIG. 5B are representative of three individual experiments performed in triplicate (where the horizontal line at approximately 60% in the graph indicates significance at p<0.0001). The data indicates a rapid mode of action was observed by both the real-time imaging and trypan blue staining mechanisms, with nearly 80% cell death after only 6 h of treatment and approximately 100% cell death after the 24 h period.

[5] = test system: RFP-PC-3 cells; experiment: Co-culture differential fluorescence, RFP-PC-3 cells; assay type: cell-based, human; conditions: JCHmLHRH 5 μM or JC21mLHRH 8 μM, 12 hr
Description: In the various experiments described below, unless otherwise noted, co-cultures were prepared and utilized as described by Yates et al. (see Yates C, Shepard C R, Papworth G, Dash A, Beer Stolz D, Tannenbaum S, et al., Novel three-dimensional organotypic liver bioreactor to directly visualize early events in metastatic progression, Adv Cancer Res, 2007; 97:225-46; and Yates C, Shepard C R, Stolz D B, Wells A., Co-culturing human prostate carcinoma cells with hepatocytes leads to increased expression of E-cadherin, Br J Cancer 2007; 96:1246-52), with certain modifications as noted herein. The co-cultures consisted of 50,000 cells/cm^2 of GFP-HS-27a bone marrow stromal cells and 2000 cells/cm^2 of red fluorescent protein PC-3 prostate cancer cells (“RFP-PC-3”), and were maintained in Dulbecco's modified Eagle medium, and cell death was monitored in real-time (as described above) by differential fluorescence. To determine relative intensity, the total intensity area of each image as well as the threshold intensity for each channel was measured utilizing Metamorph Imaging Software (Molecular Devices, Inc., CA), and the significance between the two intensities was then analyzed statistically. All quantitative data was normalized to each control image. […]

[6] = test system: GFP-HS-27a bone marrow stromal cells; experiment: Co-culture differential fluorescence, GFP-HS-27a bone marrow stromal cells; assay type: cell-based; conditions: for relative intensity of GFP-HS-27a cells: JCHmLHRH 5 μM or JC21mLHRH 8 μM, 12 hr
Description: In the various experiments described below, unless otherwise noted, co-cultures were prepared and utilized as described by Yates et al. (see Yates C, Shepard C R, Papworth G, Dash A, Beer Stolz D, Tannenbaum S, et al., Novel three-dimensional organotypic liver bioreactor to directly visualize early events in metastatic progression, Adv Cancer Res, 2007; 97:225-46; and Yates C, Shepard C R, Stolz D B, Wells A., Co-culturing human prostate carcinoma cells with hepatocytes leads to increased expression of E-cadherin, Br J Cancer 2007; 96:1246-52), with certain modifications as noted herein. The co-cultures consisted of 50,000 cells/cm^2 of GFP-HS-27a bone marrow stromal cells and 2000 cells/cm^2 of red fluorescent protein PC-3 prostate cancer cells (“RFP-PC-3”), and were maintained in Dulbecco's modified Eagle medium, and cell death was monitored in real-time (as described above) by differential fluorescence. To determine relative intensity, the total intensity area of each image as well as the threshold intensity for each channel was measured utilizing Metamorph Imaging Software (Molecular Devices, Inc., CA), and the significance between the two intensities was then analyzed statistically. All quantitative data was normalized to each control image.
For this experiment, RFP-PC-3 cell cultures, GFP-HS-27a cell cultures, and RFP-PC-3/GFP-HS-27a cell co-cultures were exposed to JCHmLHRH (5 μM) and JC21mLHRH (8 μM), and the various cultures were monitored by differential immunofluorescence over 12 h period. Images comprising black and white photographs of the cultures at the 0 hr, 6 hr, and 12 hr marks following administration of JCHmLHRH and JC21mLHRH are shown in FIG. 5C and FIG. 5D, respectively. Two trials of this experiment were conducted with similar results, and the photographs of FIG. 5C and FIG. 5D are illustrative of the results of both trials. […] Further, the RFP-PC-3/GFP-HS-27a co-culture images at the 6 hr and 12 hr marks largely resemble the corresponding time images for GFP-HS-27a cultures in relative intensity.
FIG. 5E in turn provides a chart showing the relative intensity of total areas measured under differential fluorescence of the co-culture cells after they were exposed to JCHmLHRH and JC21mLHRH in this experiment.

[7] = test system: PC-3 cells; experiment: PC-3 growth recovery after 24 h peptide pretreatment; assay type: cell-based, human; conditions: 24 h pretreatment JCHmLHRH 5 μM or JC21mLHRH 8 μM, 3 days
Description: This experiment was performed to determine whether cancerous cells could recover after JCHmLHRH or JC21mLHRH exposure. PC-3 cell cultures were exposed to JCHmLHRH (5 μM) or JC21mLHRH (8 μM) for 24 hours. Growth was measured over a 3-day period. Growth of pre-treatment and post-treatment groups were compared over time.

[8] = test system: LNCaP cells; experiment: MTT cytotoxicity assay, LNCaP prostate cancer cells; assay type: cell-based, human; conditions: 72 h exposure
Text: as §1, §2

[9] = test system: DU-145 cells; experiment: MTT cytotoxicity assay, DU-145 prostate cancer cells; assay type: cell-based, human; conditions: 72 h exposure
Text: as §1, §2

AFKKAFKKAKKAFKKAFKAFAFA [JC21]
pIC50 [1]: 5.03

FALALKALKKALKKLKKALKKAL [JCH]
pIC50 [1]: 5.18

QHWSWGLRPGAFKKAFKKAKKAFKKAFKAFAFA [JC21mLHRH]
effect on hPrEC cell proliferation / toxicity [2]: neither JCHmLHRH nor JC21mLHRH causes appreciable decreases in hPrEC cell proliferation; also recorded: nontoxic
decrease in sensitivity to peptide on depletion of LHRH levels [3]: 50%
morphological changes in cells ([4]; PC-3 cells, 3 h exposure, real-time imaging): morphological changes
cell death ([4]; PC-3 cells, JCHmLHRH 5 μM or JC21mLHRH 8 μM, 6 h of treatment): ~80%
cell death ([4]; PC-3 cells, JCHmLHRH 5 μM or JC21mLHRH 8 μM, after the 24 h period): approximately 100%
mode of cell death observed under microscope ([4]; PC-3 cells, JCHmLHRH 5 μM or JC21mLHRH 8 μM, time-lapse microscopy): condensing of the cellular and nuclear membrane without bursting
expression of apoptotic marker Annexin V ([4]; exposed PC-3 cells): did not observe expression of apoptotic marker Annexin V
relative intensity of RFP-PC-3 cells [5]: approaches zero
toxicity to bone marrow stromal cells in co-culture [6]: nontoxic
relative intensity of GFP-HS-27a cells [6]: only decreases slightly
cell growth after pretreatment [7]: completely inhibited cell growth

QHWSWGLRPGFALALKALKKALKKLKKALKKAL [JCHmLHRH]
pIC50 [1]: 5.37 and 5.36
pIC50 [8]: 5.36
pIC50 [9]: 5.32
effect on hPrEC cell proliferation / toxicity [2]: neither JCHmLHRH nor JC21mLHRH causes appreciable decreases in hPrEC cell proliferation; also recorded: nontoxic
toxicity to bone marrow stromal cells in co-culture [6]: nontoxic
relative intensity of GFP-HS-27a cells [6]: only decreases slightly

mLHRH: modified LHRH binding sequence, tryptophan in place of tyrosine, QHWSWGLRPG (ends and bridges not checked; listed as Homo sapiens)
cell death at higher concentrations ([1]; mLHRH sequence alone): failed to cause 50% cell death
concentration causing a decrease in cell proliferation of PC-3 cells (as low as) ([1]; mLHRH sequence alone): 1 µM
